# Where a name gives a salt, the structure may show the parent alone.
# Test system: not listed separately
# Assay: Cytotoxicity against human MDA-MB-231 cells assessed as cell viability at 100 uM by MTT assay relative to control
# Format: cell-based
# Conditions: read-out: Activity
row,Compound,viability at 100 µM [%]
1,O=c1[nH]c(CSc2nc3c(-c4ccc(S(F)(F)(F)(F)F)cc4)cnn3c(=O)[nH]2)c(Cl)c(=O)[nH]1,67

# Biological target: T1, Thymidine phosphorylase (Escherichia coli K-12, UniProt P07650)
# Assay: Mixed-type inhibition of Escherichia coli recombinant thymidine phosphorylase using thymidine as substrate by Lineweaver-Burk plot analysis
# Conditions: not given
# T1 sequence (P07650 whole entry): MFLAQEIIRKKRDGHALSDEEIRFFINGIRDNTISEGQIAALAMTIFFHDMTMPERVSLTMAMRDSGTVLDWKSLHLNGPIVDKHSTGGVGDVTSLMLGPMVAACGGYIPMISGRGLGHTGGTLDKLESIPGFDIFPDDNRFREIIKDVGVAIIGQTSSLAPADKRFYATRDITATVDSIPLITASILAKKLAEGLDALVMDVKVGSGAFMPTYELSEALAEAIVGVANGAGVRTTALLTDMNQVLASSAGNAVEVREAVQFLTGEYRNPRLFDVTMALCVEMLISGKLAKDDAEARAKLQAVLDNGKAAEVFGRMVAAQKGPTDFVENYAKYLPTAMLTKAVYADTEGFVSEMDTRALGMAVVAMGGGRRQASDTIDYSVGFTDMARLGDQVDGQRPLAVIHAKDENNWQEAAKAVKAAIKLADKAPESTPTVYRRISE
row,Ki [µM],Compound
1,0.44,O=c1[nH]c(CSc2nc3c(-c4ccc(S(F)(F)(F)(F)F)cc4)cnn3c(=O)[nH]2)c(Cl)c(=O)[nH]1

# Biological target: T1, Thymidine phosphorylase
# Assay: Inhibition of Escherichia coli recombinant thymidine phosphorylase using thymidine as substrate after 4 to 20 mins by UV spectrophotometry
# Conditions: not given
row,IC50 [µM],Compound
1,1.8,CC(C)(C)c1ccc(-c2cnn3c(=O)[nH]c(SCc4[nH]c(=O)[nH]c(=O)c4Cl)nc23)cc1
2,21.3,COc1ccc(-c2cnn3c(=O)[nH]c(SCc4[nH]c(=O)[nH]c(=O)c4Cl)nc23)cc1
3,12,CCOc1ccc(-c2cnn3c(=O)[nH]c(SCc4[nH]c(=O)[nH]c(=O)c4Cl)nc23)cc1
4,0.61,O=c1[nH]c(CSc2nc3c(-c4ccc(I)cc4)cnn3c(=O)[nH]2)c(Cl)c(=O)[nH]1
5,0.36,O=c1[nH]c(CSc2nc3c(-c4ccc(S(F)(F)(F)(F)F)cc4)cnn3c(=O)[nH]2)c(Cl)c(=O)[nH]1
6,2.1,O=c1[nH]c(CSc2nc3cc(-c4ccc(C(F)(F)F)cc4)nn3c(=O)[nH]2)c(Cl)c(=O)[nH]1
7,9.8,Cc1ccc(-c2cc3nc(SCc4[nH]c(=O)[nH]c(=O)c4Cl)[nH]c(=O)n3n2)cc1
8,1.5,CC(C)(C)c1ccc(-c2cc3nc(SCc4[nH]c(=O)[nH]c(=O)c4Cl)[nH]c(=O)n3n2)cc1
9,11.8,COc1ccc(-c2cc3nc(SCc4[nH]c(=O)[nH]c(=O)c4Cl)[nH]c(=O)n3n2)cc1
10,10,CCOc1ccc(-c2cc3nc(SCc4[nH]c(=O)[nH]c(=O)c4Cl)[nH]c(=O)n3n2)cc1
11,13,O=c1[nH]c(CSc2nc3cc(-c4ccccc4)nn3c(=O)[nH]2)c(Cl)c(=O)[nH]1
12,35.3,Cc1cnn2c(=O)[nH]c(SCc3[nH]c(=O)[nH]c(=O)c3Cl)nc12
13,49.8,O=c1[nH]c(CSc2nc3c(Cl)cnn3c(=O)[nH]2)c(Cl)c(=O)[nH]1
14,40,O=c1[nH]c(CSc2nc3c(Br)cnn3c(=O)[nH]2)c(Cl)c(=O)[nH]1
15,30.8,O=c1[nH]c(CSc2nc3c(I)cnn3c(=O)[nH]2)c(Cl)c(=O)[nH]1
16,38.8,N#Cc1cnn2c(=O)[nH]c(SCc3[nH]c(=O)[nH]c(=O)c3Cl)nc12
17,47.2,CCOC(=O)c1cnn2c(=O)[nH]c(SCc3[nH]c(=O)[nH]c(=O)c3Cl)nc12

row,IC50 [µM],Compound
1,9.7,O=c1[nH]c(CSc2nc3c(-c4ccccc4)cnn3c(=O)[nH]2)c(Cl)c(=O)[nH]1
2,8,O=c1[nH]c(CSc2nc3c(-c4ccc(F)cc4)cnn3c(=O)[nH]2)c(Cl)c(=O)[nH]1
3,2.8,O=c1[nH]c(CSc2nc3c(-c4ccc(Cl)cc4)cnn3c(=O)[nH]2)c(Cl)c(=O)[nH]1
4,1.2,O=c1[nH]c(CSc2nc3c(-c4ccc(Br)cc4)cnn3c(=O)[nH]2)c(Cl)c(=O)[nH]1
5,1.3,O=c1[nH]c(CSc2nc3c(-c4ccc(C(F)(F)F)cc4)cnn3c(=O)[nH]2)c(Cl)c(=O)[nH]1
6,7.3,Cc1ccc(-c2cnn3c(=O)[nH]c(SCc4[nH]c(=O)[nH]c(=O)c4Cl)nc23)cc1
7,6.1,CCOc1ccc(-c2cc3[nH]c(=S)[nH]c(=O)n3n2)cc1
8,> 100,N#Cc1cnn2c(=O)[nH]c(=S)[nH]c12
9,> 100,CCOC(=O)c1cnn2c(=O)[nH]c(=S)[nH]c12
10,67.8,O=c1[nH]c(CSc2nc3ccnn3c(=O)[nH]2)c(Cl)c(=O)[nH]1
11,55.5,Cc1cc2nc(SCc3[nH]c(=O)[nH]c(=O)c3Cl)[nH]c(=O)n2n1
12,51.2,CC(C)(C)c1cc2nc(SCc3[nH]c(=O)[nH]c(=O)c3Cl)[nH]c(=O)n2n1
13,31,O=c1[nH]c(CSc2nc3cc(C(F)(F)F)nn3c(=O)[nH]2)c(Cl)c(=O)[nH]1
14,22.6,O=c1[nH]c(CSc2nc3cc(-c4ccc(F)cc4)nn3c(=O)[nH]2)c(Cl)c(=O)[nH]1
15,10.3,O=c1[nH]c(CSc2nc3cc(-c4ccc(Cl)cc4)nn3c(=O)[nH]2)c(Cl)c(=O)[nH]1
16,6.2,O=c1[nH]c(CSc2nc3cc(-c4ccc(Br)cc4)nn3c(=O)[nH]2)c(Cl)c(=O)[nH]1
17,0.0027,N=C1CCCN1Cc1[nH]c(=O)[nH]c(=O)c1Cl [TIPIRACIL HYDROCHLORIDE]

# Biological target: T1, Thymidine phosphorylase
# Assay: Noncompetitive inhibition of GST-tagged Escherichia coli recombinant thymidine phosphorylase expressed in Escherichia coli using thymidine as substrate after 20 to 60 mins by HPLC analysis
# Conditions: not given
row,IC50 [µM],Compound
1,44,Oc1ncnc2c1ncn2[C@@H]1O[C@H](COC(c2ccccc2)(c2ccccc2)c2ccccc2)[C@@H](O)[C@H]1O

# Reference: ChEMBL document CHEMBL3085661, “Fragment-based approach to the design of 5-chlorouracil-linked-pyrazolo[1,5-a][1,3,5]triazines as thymidine phosphorylase inhibitors” (Eur J Med Chem, 2013)
